# Reference: ChEMBL document CHEMBL1150816, “Bioactive constituents of the roots of Licania intrapetiolaris” (J Nat Prod, 2001)
# Calls of active or inactive are those of the source. The rule behind the calls is not given here.
# Key:
# Aspergillus niger = experiment: Antifungal activity against Aspergillus niger after 24 hrs; format: functional
# KB = experiment: Cytotoxicity against human KB cells after 72 hrs by spectrophotometric method; format: functional, cell-based
Compound,inhibition zone (IZ) (Aspergillus niger),EC50 (KB) [µg/mL]
C[C@@H]1[C@H](O)[C@@H](C)/C=C/C=C/C=C/C=C/C=C/C=C/C=C/[C@H](O[C@@H]2O[C@H](C)[C@@H](O)[C@H](N)[C@@H]2O)C[C@@H]2O[C@](O)(C[C@@H](O)C[C@@H](O)[C@H](O)CC[C@@H](O)C[C@@H](O)CC(=O)O[C@H]1C)C[C@H](O)[C@H]2C(=O)O [AMPHOTERICIN B],18 mm,
CC(=O)OC(C)(C)/C=C/C(=O)[C@](C)(O)[C@H]1[C@H](O)C[C@@]2(C)[C@@H]3CC=C4[C@H](C[C@H](O)C(=O)C4(C)C)[C@]3(C)C(=O)C[C@]12C [CUCURBITACIN B],,0.008
C=CC(=C)CC[C@]1(C)[C@H](C)C[C@H](O)[C@@]23C(=C[C@@H](OC(=O)c4ccc(O)cc4)C[C@@H]12)[C@@H](OC)O[C@H]3OC(C)=O [INTRAPETACIN A],inactive,2
C=CC(=C)CC[C@]1(C)[C@H](C)C[C@H](O)[C@@]23C(=C[C@@H](OC(=O)c4ccc(O)cc4)C[C@@H]12)[C@@H](OC(C)=O)O[C@H]3OC(C)=O [INTRAPETACIN B],21 mm,0.8
